{
  "source": "patent US8183364B2",
  "about": "“Substituted porphyrins” (Duke University, priority 2004, dated 2012)",
  "key": {"[1]": {"assay": "Electrochemistry: cyclic voltammetry of the Mn(III)/Mn(II) redox couple", "type": "physicochemical", "conditions": "for Metal-centered redox potential E1/2: Mn(III)/Mn(II), 0.1 M NaCl, 0.05 M phosphate buffer, pH 7.8, ±3 mV", "method": "Electrochemistry. Measurements were performed on a CH Instruments Model 600 Voltammetric Analyzer (Spasojevic and Batinic-Haberle, Inorg. Chim. Acta. 317:230-242 (2001), Batinic-Haberle et al, J. Biol. Chem. 273:24521-24528 (1998), Batinic-Haberle et al, Inorg. Chem. 38:4011-4022 (1999)). A three-electrode system in a small volume cell (0.5 mL to 3 mL), with a 3 mm-diameter glassy carbon button working electrode (Bioanalytical Systems), plus the Ag/AgCl reference and Pt auxiliary electrodes was used. Argon-purged solutions contained 0.05 M phosphate buffer, pH 7.8, 0.1 M NaCl, and 0.5 mM metalloporphyrin. The scan rates were 0.01-0.5 V/s, typically 0.1 V/s. The potentials were standardized against the potassium ferrocyanide/ferricyanide (Kolthof and Tomsicek, J. Phys. Chem. 39:945 (1935)) and/or against MnTE-2-PyP^5+ (Spasojevic and Batinic-Haberle, Inorg. Chim. Acta. 317:230-242 (2001), Batinic-Haberle et al, J. Biol. Chem. 273:24521-24528 (1998), Batinic-Haberle et al, Inorg. Chem. 38:4011-4022 (1999)).\nElectrochemistry. All cyclic voltammograms, ascribed to the Mn(III)/Mn(II) redox couple, are reversible. The E1/2 of di-ortho ethylimidazolylporphyrin, MnTDE-2-ImP^5+ is 118 mV more positive than of ortho ethylpyridylporphyrin, MnTE-2-PyP^5+ (+228 mV vs NHE), as a consequence of charge delocalization. A similar difference of 114 mV was seen between their methoxyethyl analogues. Mn porphyrins bearing N-pyridyl substituents of the same length, MnTnBu-PyP^5+ and MnTMOE-2-PyP^5+, have nearly identical E1/2 of +254 and +251 mV vs NHE, which is 26 and 23 mV higher than that of MnTE-PyP^5+."}, "[2]": {"assay": "Catalysis of O2.^− dismutation by pulse radiolysis", "type": "biochemical", "conditions": "for log kcat for O2^− dismutation: pulse radiolysis, pH 7.8, (22 ± 1) °C, kcat ±30%", "method": "Catalysis of O2.^− dismutation. The catalytic rate constants for the O2.^− dismutation were determined by pulse radiolysis in 0.05 M phosphate buffer (pH 7.8) at (22±1)° C. as previously described (Batinic-Haberle et al, Inorg. Chem. 40:726 (2001)). In the present study 10 mM formate was used as a scavenger for H. atoms and .OH radicals, which leads first to production of CO2.^− radicals and then to O2.^− radicals. This system is known to lead to conversion of all primary radicals of water radiolysis into O2.^−.\nCatalysis of O2.^− dismutation. Pulse radiolysis was used to assess the SOD-like activities of the Mn porphyrins studied. The initial concentration of O2.^− produced by the pulse was about 27 μM, and the concentration of the Mn porphyrin was between 0.5 and 5 μM. The dismutation of O2.^− was followed at 280 nm. The catalytic rate constant was determined from the linear dependence of kobs upon the concentration of the catalyst (Batinic-Haberle et al, Inorg. Chem. 40:726 (2001)). All the new compounds have high O2.^− dismuting ability. The magnitude of the catalysis is due to the interplay of the electron-withdrawing effects of quaternized ortho pyridyl or di-ortho imidazolyl groups, favorable electrostatics, and the solvation of the metal site."}, "[3]": {"assay": "Thin-layer chromatography on silica gel (retention factor Rf, lipophilicity)", "type": "physicochemical", "conditions": "silica gel TLC, KNO3-saturated H2O/H2O/acetonitrile = 1/1/8; for Rf (compound path/solvent path), metal-free porphyrin (in parenthesis): metal-free ligand of the named Mn porphyrin", "method": "Uv/vis spectra of porphyrin ligands and their Mn complexes were taken on a Shimadzu UV-2501-PC spectrophotometer at 25° C. Thin-layer chromatography of ligands and Mn complexes was done using silica gel plates with KNO3satH2O/H2O/acetonitrile=1/1/8.\nThin-layer chromatography. All new methoxyporphyrins are more lipophilic than MnTE-2-PyP^5+ and MnTDE-2-ImP^5+."}, "[4]": {"assay": "Oxidative degradation in the presence of ascorbic acid under aerobic conditions", "type": "physicochemical", "conditions": "pH 7.8 (0.05 M tris buffer)", "method_in_brief": "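Mn porphyrins exposed to ascorbic acid under aerobic conditions; percentage of porphyrin degraded within 2 hours recorded.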"}, "[5]": {"system": "SOD-deficient JI132 E. coli", "assay": "Aerobic growth of SOD-deficient E. coli", "type": "cell-based", "conditions": "for aerobic growth of SOD-deficient E. coli: 5AA minimal medium", "method_in_brief": "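Strains were AB1157 and its sodA sodB mutant JI132, precultured overnight in M9CA at 37 °C, then diluted to 3×10^7 cells/mL in M9CA or, after washing, in 5AA minimal medium. Mn porphyrins at 0.1 to 30 μM were present during aerobic shaking at 37 °C. Growth rate was followed by turbidity at 700 nm.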"}},
  "data": [
    {"smiles": "COCCn1cc[n+](CCOC)c1-c1c2nc(c(-c3n(CCOC)cc[n+]3CCOC)c3ccc([n-]3)c(-c3n(CCOC)cc[n+]3CCOC)c3nc(c(-c4n(CCOC)cc[n+]4CCOC)c4ccc1[n-]4)C=C3)C=C2.[Mn+3]", "note": "[MnTDMOE-2-ImP^5+, Mn(III) tetrakis 5,10,15,20-tetrakis[N,N′-di(2-methoxyethyl)imidazolium-2-yl]porphyrin]", "values": [
      {"measurement": "Metal-centered redox potential E1/2", "setting": "[1]", "value": "+365 mV vs NHE"},
      {"measurement": "log kcat for O2^− dismutation", "setting": "[2]", "value": 7.59},
      {"measurement": "Rf (compound path/solvent path), metal-free porphyrin (in parenthesis)", "setting": "[3]", "value": 0.24},
      {"measurement": "Rf (compound path/solvent path), Mn complex", "setting": "[3]", "value": 0.21},
      {"measurement": "degradation within 2 hours", "setting": "[4]", "value": 2, "unit": "%"},
      {"measurement": "aerobic growth of SOD-deficient E. coli", "setting": "[5]; 3 μM", "value": "the most effective methoxyethyl porphyrin"},
      {"measurement": "aerobic growth of SOD-deficient E. coli", "setting": "[5]; 25 μM", "value": "not far behind"},
      {"measurement": "protection of SOD-deficient E. coli", "setting": "[5]; M9CA medium, 3 μM", "value": "the most effective (next to n-butyl and n-hexyl)"},
      {"measurement": "protection of E. coli from oxidative stress", "setting": "[5]; ≦3 μM levels (FIG. 10: 5AA minimal medium)", "value": "the most protective"}
    ]},
    {"smiles": "COCC[n+]1ccccc1-c1c2nc(c(-c3cccc[n+]3CCOC)c3ccc([n-]3)c(-c3cccc[n+]3CCOC)c3nc(c(-c4cccc[n+]4CCOC)c4ccc1[n-]4)C=C3)C=C2.[Mn+3]", "note": "[MnTMOE-2-PyP^5+, Mn(III) tetrakis 5,10,15,20-tetrakis[N-(2-methoxyethyl)pyridinium-2-yl]porphyrin]", "values": [
      {"measurement": "Metal-centered redox potential E1/2", "setting": "[1]", "value": "+251 mV vs NHE"},
      {"measurement": "E1/2 more positive / higher than that of MnTE-2-PyP^5+", "setting": "[1]; difference vs MnTE-2-PyP^5+ (+228 mV vs NHE)", "value": 23, "unit": "mV"},
      {"measurement": "log kcat for O2^− dismutation", "setting": "[2]", "value": 8.04},
      {"measurement": "SOD-like activity relative to MnTE-2-PyP^5+", "setting": "[2]; vs MnTE-2-PyP^5+", "value": "two-fold higher"},
      {"measurement": "kcat higher than MnTnBu-2-PyP^5+", "setting": "[2]; vs MnTnBu-2-PyP^5+", "value": 6, "unit": "fold"},
      {"measurement": "Rf (compound path/solvent path), metal-free porphyrin (in parenthesis)", "setting": "[3]", "value": 0.18},
      {"measurement": "Rf (compound path/solvent path), Mn complex", "setting": "[3]", "value": 0.16},
      {"measurement": "degradation within 2 hours", "setting": "[4]", "value": 24, "unit": "%"},
      {"measurement": "aerobic growth of SOD-deficient E. coli", "setting": "[5]; 25 μM", "value": "not far behind"}
    ]}
  ]
}
